Some results are limits rather than exact numbers.

In one experiment the target is T1, PAD4 enzyme (Homo sapiens, UniProt Q9UM07).
T1 construct: PAD4 enzyme was diluted to 30 nM in Assay Buffer
T1 sequence (Q9UM07 whole entry): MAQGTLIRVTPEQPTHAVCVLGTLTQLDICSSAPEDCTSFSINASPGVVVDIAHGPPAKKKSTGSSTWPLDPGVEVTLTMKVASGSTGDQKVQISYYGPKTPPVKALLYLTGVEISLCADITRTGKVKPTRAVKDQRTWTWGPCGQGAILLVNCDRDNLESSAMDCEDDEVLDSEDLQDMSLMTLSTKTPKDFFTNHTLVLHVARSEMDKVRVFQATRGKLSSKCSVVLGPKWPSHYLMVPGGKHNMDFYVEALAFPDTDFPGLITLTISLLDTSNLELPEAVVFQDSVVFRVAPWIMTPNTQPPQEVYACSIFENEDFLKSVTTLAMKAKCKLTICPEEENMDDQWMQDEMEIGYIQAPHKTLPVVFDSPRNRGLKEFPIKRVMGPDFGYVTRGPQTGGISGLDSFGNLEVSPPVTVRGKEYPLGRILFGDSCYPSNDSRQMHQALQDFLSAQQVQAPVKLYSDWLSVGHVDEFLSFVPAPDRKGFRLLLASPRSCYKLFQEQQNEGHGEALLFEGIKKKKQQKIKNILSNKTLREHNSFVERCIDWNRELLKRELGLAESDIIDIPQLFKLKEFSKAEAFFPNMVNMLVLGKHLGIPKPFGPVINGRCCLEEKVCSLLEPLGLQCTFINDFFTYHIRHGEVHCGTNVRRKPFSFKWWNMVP
Description: In-vitro measurement for enzymatic PAD4 citrullination inhibition activity (ammonia release). In kind it is biochemical. The settings on record: direct comparison of prior art and selenium containing compounds; read-out: IC50 for enzymatic PAD4 citrullination inhibition. The method, then: Citrullination was detected via ammonia release based on published methodology (Nature Chemical Biology, 2015, 11: 189-191).
PAD4 enzyme was diluted to 30 nM in Assay Buffer (100 mM HEPES, 50 mM NaCl, 2 mM DTT, 0.6 mg/ml BSA, pH 8) and added to wells containing various concentrations of compound or DMSO vehicle (0.8% final) in a high-volume black 96-well plate (Greiner). Following a 60-min preincubation at 27° C., the reaction was initiated by the addition of substrate (3 mM BAEE in 100 mM HEPES, 50 mM NaCl, […] CaCl2, 2 mM DTT, pH 8). The reaction was stopped after 90 min by the addition of stop/detection buffer containing 50 mM EDTA, 2.6 mM o-phthalaldehyde and 2.6 mM DTT. Assays were incubated at 27° C. for 120 min before measuring fluorescence (λex 410/λem 476) on an Envision plate reader (PerkinElmer). After which IC50 values were calculated using GraphPad Prism 8.0.
For the compound `COc1cc(C(=O)N2C[C@H]3CC[C@@H]2[C@@H]3N)cc2nc(-c3cc4[se]c(C)cc4n3CC3CC3)n(C)c12` [HH-52], the IC50 (usually the concentration at which inhibition is half-maximal) turned out to be 25.1 nM.

Still in this experiment, the particulars now being: read-out: IC50 of inhibition enzymatic activity of PAD4 (Colorimetric assays, Nature Chemical Biology, 2015, 11: 189-191).
Take `COc1cc(C(=O)N2C[C@H](N)C[C@@H](F)C2)cc2nc(-c3cc4[se]c(-c5cccc(C)c5)nc4n3CC3CC3)n(C)c12` [HH-46]: the IC50 is > 500 nM.

Consider `COc1cc(C(=O)N2C[C@H](N)C[C@@H](F)C2)cc2nc(-c3cc4[se]ccc4n3CC3CC3)n(C)c12` [HH-47], for which the IC50 was in the range of 50 to 100 nM.

Consider `COc1cc(C(=O)N2C[C@H](N)CC[C@@H]2C)cc2nc(-c3cc4[se]ccc4n3CC3CC3)n(C)c12` [HH-48], for which the IC50 is 100 to 500 nM.

As for `COc1cc(C(=O)N2C[C@H](N)CC[C@@H]2C)cc2nc(-c3cc4[se]c(C)cc4n3CC3CC3)n(C)c12` [HH-49], the IC50 was ≤ 50 nM.

As for `COc1cc(C(=O)N2CCC[C@@H](N)C2)cc2nc(-c3cc4[se]c(C)cc4n3CC3CC3)n(C)c12` [HH-50], the IC50 was 50 to 100 nM.

Turning to `COc1cc(C(=O)N2C[C@H](N)C[C@@H](F)C2)cc2nc(-c3cc4[se]c(C)cc4n3CC3CC3)n(C)c12` [HH-51], the IC50 is ≤ 50 nM.

Consider `COc1cc(C(=O)N2C[C@H]3CC[C@@H]2[C@@H]3N)cc2nc(-c3cc4[se]c(C)cc4n3CC3CC3)n(C)c12` [HH-52], for which the IC50 was ≤ 50 nM.

With `COc1cc(C(=O)N2C[C@H](N)C[C@@H](F)C2)cc2nc(-c3cc4[se]c(C5CCCN5)cc4n3CC3CC3)n(C)c12` (stereo partly shown) [HH-53], the IC50 was in the range of 50 to 100 nM.

On to `COc1cc(C(=O)N2C[C@H](N)CC[C@@H]2C)cc2nc(-c3cc4[se]c(C5CCCN5)cc4n3CC3CC3)n(C)c12` (stereo partly shown) [HH-54], for which the IC50 was 50 to 100 nM.

`COc1cc(C(=O)N2C[C@H]3CC[C@@H]2[C@@H]3N)cc2nc(-c3cc4[se]c(C5CCCN5)cc4n3CC3CC3)n(C)c12` (stereo partly shown) [HH-55]: the IC50 was 100 to 500 nM.

Turning to `COc1cc(C(=O)N2C[C@H]3CC[C@@H]2[C@@H]3N)cc2nc(-c3cc4[se]c(-c5ccc(C)cc5)cc4n3CC3CC3)n(C)c12` [HH-56], the IC50 lay in the range of 100 to 500 nM.

For `COc1cc(C(=O)N2C[C@H]3CC[C@@H]2[C@@H]3N)cc2nc(-c3cc4[se]c(-c5cccc(C)c5)cc4n3CC3CC3)n(C)c12` [HH-57], the IC50 lay in the range of 100 to 500 nM.

Consider `COc1ccc(-c2cc3c(cc(-c4nc5cc(C(=O)N6C[C@H]7CC[C@@H]6[C@@H]7N)cc(OC)c5n4C)n3CC3CC3)[se]2)cc1` [HH-58], for which the IC50 is 100 to 500 nM.

For the compound `COc1ccccc1-c1cc2c(cc(-c3nc4cc(C(=O)N5C[C@H](N)CC[C@@H]5C)cc(OC)c4n3C)n2CC2CC2)[se]1` [HH-59], the IC50 was ≤ 50 nM.

As for `COc1ccccc1-c1cc2c(cc(-c3nc4cc(C(=O)N5C[C@H](N)C[C@@H](F)C5)cc(OC)c4n3C)n2CC2CC2)[se]1` [HH-60], the IC50 fell in the range of 100 to 500 nM.

Turning to `COc1cc(C(=O)N2C[C@H]3CC[C@@H]2[C@@H]3N)cc2nc(-c3cc4[se]c(-c5ccccn5)cc4n3CC3CC3)n(C)c12` [HH-61], the IC50 is 100 to 500 nM.

Turning to `COc1cc(C(=O)N2C[C@H](N)CC[C@@H]2C)cc2nc(-c3cc4[se]c(-c5ccccn5)cc4n3CC3CC3)n(C)c12` [HH-62], the IC50 is 50 to 100 nM.

For the compound `COc1cc(C(=O)N2C[C@H](N)C[C@@H](F)C2)cc2nc(-c3cc4[se]c(-c5ccccn5)cc4n3CC3CC3)n(C)c12` [HH-63], the IC50 is 100 to 500 nM.

As for `COc1cc(C(=O)N2C[C@H](N)C[C@@H](F)C2)cc2nc(-c3cc4cc[se]c4n3CC3CC3)n(C)c12` [HH-64], the IC50 was 50 to 100 nM.

Consider `COc1cc(C(=O)N2C[C@H](N)CC[C@@H]2C)cc2nc(-c3cc4cc[se]c4n3CC3CC3)n(C)c12` [HH-65], for which the IC50 lay in the range of 50 to 100 nM.

Consider `COc1cc(C(=O)N[C@@H]2CC[C@H](C)NC2)cc2nc(-c3cc4cc[se]c4n3CC3CC3)n(C)c12` [HH-66], for which the concentration for half-maximal inhibition (IC50) was in the range of 100 to 500 nM.

Turning to `COc1cc(C(=O)N2C[C@H](N)CC[C@@H]2C)cn2nc(-c3cc4[se]c(C)nc4n3CC3CC3)c(C)c12` [HH-67], the IC50 lay within 100 to 500 nM.

Regarding `COc1cc(C(=O)N2C[C@H]3CC[C@@H]2[C@@H]3N)cn2nc(-c3cc4[se]c(C)nc4n3CC3CC3)c(C)c12` [HH-68], the IC50 lay within 50 to 100 nM.

`COc1cc(C(=O)N2C[C@H](N)C[C@@H](F)C2)cn2nc(-c3cc4[se]c(C)nc4n3CC3CC3)c(C)c12` [HH-69]: the IC50 is 50 to 100 nM.

As to `Cc1c(-c2cc3[se]c(-c4ccccn4)nc3n2CC2CC2)nn2cc(C(=O)N3C[C@H](N)CC[C@@H]3C)ccc12` [HH-70], the IC50 lay within 100 to 500 nM.

On to `Cc1c(-c2cc3[se]c(-c4ccccn4)nc3n2CC2CC2)nn2cc(C(=O)N3C[C@H](N)C[C@@H](F)C3)ccc12` [HH-71], for which the IC50 lay in the range of 100 to 500 nM.

As for `Cc1c(-c2cc3[se]c(-c4ccccn4)nc3n2CC2CC2)nn2cc(C(=O)N3C[C@H]4CC[C@@H]3[C@@H]4N)ccc12` [HH-72], the IC50 fell in the range of 100 to 500 nM.

Turning to `Cc1nc2c(cc(-c3nc4cc(C(=O)N5C[C@H](N)C[C@@H](F)C5)ccn4c3C)n2CC2CC2)[se]1` [HH-73], the IC50 fell in the range of 50 to 100 nM.

For the compound `Cc1nc2c(cc(-c3nc4cc(C(=O)N5C[C@H]6CC[C@@H]5[C@@H]6N)ccn4c3C)n2CC2CC2)[se]1` [HH-74], the IC50 lay in the range of 50 to 100 nM.

For `Cc1nc2c(cc(-c3nc4cc(C(=O)N5C[C@H](N)CC[C@@H]5C)ccn4c3C)n2CC2CC2)[se]1` [HH-75], the IC50 was ≤ 50 nM.

The values are drawn from patent publication US20260193272A1, “SELENIUM CONTAINING HETEROCYCLE COMPOUNDS AND USE THEREOF” (HELIOS HUAMING BIOPHARMA CO., LTD., priority 2022, published 2026).
